Measured values as given in US11690396B2, “Electronic cigarette compositions, devices, and related methods” (ZANOPRIMA LIFESCIENCES LIMITED, priority 2018, dated 2023).
In brackets after ≈: the same amount, converted by molar mass.

How the values were obtained:
[1] = Solubility of carbon dioxide in nicotine solutions (Example 3, weight change); format: physicochemical
Method: Into weighed plastic 500 ml bottles containing approximately 50 g of a solution of nicotine in glycerol/propylene glycol according to Table 3 were added 4-5 g solid carbon dioxide (dry-ice), sufficient to raise the pressure to 4-5 bar. The mixtures were held under pressure for 3 days before the pressure was released, and the mixtures were then stood at ambient temperature for 48 hours and then the new weight of the solution measured. The change in weight before and after addition of the CO2 enable the amount of CO2 incorporated into the solution to be derived, as well as the molar ratio of CO2 to nicotine.

[2] = Solubility of carbon dioxide in nicotine solutions with low propylene glycol (Example 5); format: physicochemical; conditions: for Added CO2: ~50.0 g solution, average of two experiments
Excerpt: Using the same methodology as that of Example 3, solutions of nicotine in glycerol, nicotine, water, and propylene glycol (if present) were made as detailed in the Table 4. In Table 4, propylene glycol is referred to as “PG”. The propylene glycol, when present, originated from the addition of a tobacco flavouring composition. The tobacco flavouring composition, referred to in Table 4 as “TF”, (made up of tobacco flavouring dissolved/dispersed in propylene glycol) included propylene glycol at 65% by weight. […] For each experiment, the solution used was within 0.2 g of 50.0 g. As with Example 3, the solutions were weighed before and after the addition of the CO2, and the change in weight before and after addition of the CO2 enabled the amount of CO2 incorporated into the solution to be derived. The amount of carbon dioxide reported as being incorporated into solution is the average result achieved across two experiments.

[3] = glycerol 78.3, nicotine 5, water 8.7, TF 8, PG 5.2 wt %
[4] = glycerol 81, nicotine 2, water 9, TF 8, PG 5.2 wt %
[5] = glycerol 82.65, nicotine 5, water 4.35, TF 8, PG 5.2 wt %
[6] = glycerol 85.5, nicotine 2, water 4.5, TF 8, PG 5.2 wt %
[7] = glycerol 85.5, nicotine 5, water 9.5, TF 0, PG 0 wt %
[8] = glycerol 88.2, nicotine 2, water 9.8, TF 0, PG 0 wt %
[9] = glycerol 90.25, nicotine 5, water 4.75, TF 0, PG 0 wt %
[10] = glycerol 93.1, nicotine 2, water 4.9, TF 0, PG 0 wt %

**Q.** Which “Solubility CO2” value ([1]; 70:30 glycerol:propylene glycol, nicotine 0 g/kg, 4-5 bar 3 days, then 48 h ambient) does the source give for `O=C=O` [CO2, carbon dioxide] here?
**A.** Its value is 3.8 g/kg.

**Q.** What about the “Added CO2” value ([1]; 70:30 glycerol:propylene glycol, nicotine 0 g/kg, 50.00 g solution, 4-5 bar 3 days, then 48 h ambient) of the same compound?
**A.** Its value is 0.19 g.

**Q.** What about the “Solubility CO2” value ([1]; 70:30 glycerol:propylene glycol, nicotine 0 g/kg, estimated density 1.19 kg/L) of the same compound?
**A.** The value was 4.5 mg/mL (≈ 102 mM).

**Q.** And the “Molar ratio CO2/nicotine” value ([1]; 70:30 glycerol:propylene glycol, nicotine 4 g/kg (0.4%))?
**A.** The value was 8.77 mol/mol.

**Q.** What about the “Added CO2” value ([1]; 70:30 glycerol:propylene glycol, nicotine 4 g/kg (0.4%), 49.96 g solution, average of two results) of the same compound?
**A.** Its value is 0.48 g.

**Q.** What about the “Solubility CO2” value ([1]; 70:30 glycerol:propylene glycol, nicotine 4 g/kg (0.4%), average of two results) of the same compound?
**A.** Its value is 9.5 g/kg.

**Q.** What about the “Solubility CO2” value ([1]; 70:30 glycerol:propylene glycol, nicotine 4 g/kg (0.4%), estimated density 1.19 kg/L) of the same compound?
**A.** Its value is 11.3 mg/mL (≈ 257 mM).

**Q.** And the “weight increase (CO2 incorporated)” value ([1]; comparative: 20 g pure nicotine charged similarly with carbon dioxide)?
**A.** The value was “did not result in any weight increase at all”.

**Q.** What about the “Solubility of CO2” value [2, 3] of the same compound?
**A.** Its value is 13 g/kg.

**Q.** And the “Solubility of CO2” value ([2]; glycerol 78.3, nicotine 5, water 8.7, TF 8, PG 5.2 wt %, estd density 1.21 kg/l)?
**A.** Its value is 16 mg/mL.

**Q.** And the “Added CO2” value [2, 3]?
**A.** Its value is 0.66 g.

**Q.** And the “Solubility of CO2” value [2, 4]?
**A.** Its value is 12 g/kg.

**Q.** What about the “Solubility of CO2” value ([2]; glycerol 81, nicotine 2, water 9, TF 8, PG 5.2 wt %, estd density 1.21 kg/l) of the same compound?
**A.** The value was 14 mg/mL.

**Q.** What about the “Added CO2” value [2, 4] of the same compound?
**A.** The value was 0.58 g.

**Q.** And the “Solubility of CO2” value [2, 5]?
**A.** Its value is 16 g/kg.

**Q.** What about the “Solubility of CO2” value ([2]; glycerol 82.65, nicotine 5, water 4.35, TF 8, PG 5.2 wt %, estd density 1.22 kg/l) of the same compound?
**A.** Its value is 19 mg/mL.

**Q.** What about the “Added CO2” value [2, 5] of the same compound?
**A.** Its value is 0.79 g.

**Q.** What about the “Solubility of CO2” value [2, 6] of the same compound?
**A.** Its value is 11 g/kg.

**Q.** What about the “Solubility of CO2” value ([2]; glycerol 85.5, nicotine 2, water 4.5, TF 8, PG 5.2 wt %, estd density 1.23 kg/l) of the same compound?
**A.** The value was 13 mg/mL.

**Q.** What about the “Added CO2” value [2, 6] of the same compound?
**A.** The value was 0.54 g.

**Q.** What about the “Solubility of CO2” value [2, 7] of the same compound?
**A.** Its value is 16 g/kg.

**Q.** And the “Solubility of CO2” value ([2]; glycerol 85.5, nicotine 5, water 9.5, TF 0, PG 0 wt %, estd density 1.22 kg/l)?
**A.** Its value is 20 mg/mL.

**Q.** And the “Added CO2” value [2, 7]?
**A.** The value was 0.82 g.

**Q.** What about the “Solubility of CO2” value [2, 8] of the same compound?
**A.** Its value is 11 g/kg.

**Q.** What about the “Solubility of CO2” value ([2]; glycerol 88.2, nicotine 2, water 9.8, TF 0, PG 0 wt %, estd density 1.23 kg/l) of the same compound?
**A.** Its value is 14 mg/mL.

**Q.** And the “Added CO2” value [2, 8]?
**A.** Its value is 0.56 g.

**Q.** What about the “Solubility of CO2” value [2, 9] of the same compound?
**A.** Its value is 18 g/kg.

**Q.** And the “Solubility of CO2” value ([2]; glycerol 90.25, nicotine 5, water 4.75, TF 0, PG 0 wt %, estd density 1.24 kg/l)?
**A.** The value was 23 mg/mL.

**Q.** And the “Added CO2” value [2, 9]?
**A.** Its value is 0.91 g.

**Q.** What about the “Solubility of CO2” value [2, 10] of the same compound?
**A.** The value was 10 g/kg.

**Q.** And the “Solubility of CO2” value ([2]; glycerol 93.1, nicotine 2, water 4.9, TF 0, PG 0 wt %, estd density 1.25 kg/l)?
**A.** The value was 13 mg/mL.

**Q.** And the “Added CO2” value [2, 10]?
**A.** The value was 0.51 g.
